Consider ten molecules from PubChem BioAssay (NCI).

Among the test systems are CCRF-CEM leukemia; MALME-3M melanoma; NCI-H23 lung; OVCAR-4 ovarian; OVCAR-8 ovarian; RPMI-8226 leukemia; RXF 393 renal; SK-MEL-2 melanoma; UACC-62 melanoma; UO-31 renal.
What all share (test): NCI-60 cell line screen, 48 h

The structures appear in SMILES notation. Values joined by “and” are separate entries in the source; they are usually repeats but may differ in a detail not shown here. Equal entries are not always repeated.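 Exposure lasted 48 hours, with cells grown in 96-well plates and compounds tested at five concentrations. GI50 marks 50% less growth. The concentration for full growth arrest is given as TGI.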 Where only a bound is given, the exact number is not on record here.

On to `CSc1nc2sc3cc(Cl)ccc3n2c(=N)c1C#N`, for which the TGI in the assay with CCRF-CEM leukemia, in the assay with MALME-3M melanoma, in the assay on NCI-H23 lung, in the assay on OVCAR-4 ovarian, in the assay with OVCAR-8 ovarian and with RPMI-8226 leukemia was greater than 100 µM in each case. For the same molecule, the TGI was greater than 100 µM in the assay on RXF 393 renal, 48.5 µM in the assay on SK-MEL-2 melanoma, greater than 100 µM in the assay with UACC-62 melanoma and greater than 100 µM in the assay on UO-31 renal. Further, the GI50 is 14.7 µM in the assay on MALME-3M melanoma; greater than 52 µM with NCI-H23 lung; 8.9 µM with OVCAR-4 ovarian; 17.4 µM in the assay on OVCAR-8 ovarian; greater than 80.6 µM in the assay with RPMI-8226 leukemia; 19.2 µM in the assay with RXF 393 renal. Further, the figures for the GI50 in the assay on SK-MEL-2 melanoma, in the assay on UACC-62 melanoma and with UO-31 renal were 15.5 µM, 17.7 µM and greater than 76.2 µM, respectively.

In the case of `CN(C)CC1(C)CC/C(=C\c2ccccc2)C1=O` (configuration not stated), the TGI with CCRF-CEM leukemia is greater than 100 µM; in the assay on MALME-3M melanoma, greater than 100 µM; in the assay on NCI-H23 lung it was greater than 100 µM; in the assay on OVCAR-4 ovarian, greater than 100 µM; with OVCAR-8 ovarian it was greater than 100 µM; in the assay with RPMI-8226 leukemia it was 63.2 µM. In addition, the TGI with RXF 393 renal, in the assay with SK-MEL-2 melanoma, in the assay on UACC-62 melanoma and in the assay on UO-31 renal was greater than 100 µM throughout.

For the molecule `CC12CCC[C@@](C)(C(=O)OC3OC(CO)C(O)C(O)C3O)[C@H]1CCC13CC4CC(OC4(CO)[C@H]1O)[C@@H]23` (some centres not stated), the TGI in the assay with CCRF-CEM leukemia, in the assay with MALME-3M melanoma, in the assay on NCI-H23 lung, in the assay with OVCAR-4 ovarian, in the assay with OVCAR-8 ovarian and in the assay with RPMI-8226 leukemia was greater than 100 µM in each case. Further, the TGI in the assay on RXF 393 renal, with SK-MEL-2 melanoma, in the assay on UACC-62 melanoma and in the assay with UO-31 renal was greater than 100 µM in each case.

With `CC(C)(C)C(=O)C1CC(=O)c2ccccc2C1=O` (configuration not stated), the TGI in the assay with CCRF-CEM leukemia is greater than 100 µM; in the assay on MALME-3M melanoma, 31.4 µM; in the assay on NCI-H23 lung, 45.3 µM; in the assay with OVCAR-4 ovarian, greater than 100 µM; in the assay on OVCAR-8 ovarian, greater than 100 µM; in the assay with RPMI-8226 leukemia, 64.8 µM. Also, the TGI with RXF 393 renal is 80.6 µM; in the assay on SK-MEL-2 melanoma it was 33.1 µM; in the assay with UACC-62 melanoma, greater than 100 µM; with UO-31 renal, 67.8 µM.

`COc1cc2nc(Nc3cccc(F)c3)nc(Nc3cc(C)[nH]n3)c2cc1OC`: the GI50 in the assay with CCRF-CEM leukemia is 1.11 µM; with MALME-3M melanoma, 1.86 µM; in the assay on NCI-H23 lung it was 1.69 µM; with OVCAR-4 ovarian, 1.68 µM; in the assay on OVCAR-8 ovarian, 1.76 µM; with RPMI-8226 leukemia it was 1.69 µM. In addition, the GI50 with RXF 393 renal is 1.81 µM; with SK-MEL-2 melanoma it was 2.1 µM; in the assay with UACC-62 melanoma, 1.85 µM; with UO-31 renal it was 1.77 µM. Also, the TGI in the assay on CCRF-CEM leukemia is greater than 100 µM; in the assay with MALME-3M melanoma, 3.55 µM; with NCI-H23 lung it was 3.27 µM; in the assay on OVCAR-4 ovarian, 3.49 µM; in the assay with OVCAR-8 ovarian it was 5.61 µM; in the assay on RPMI-8226 leukemia, 5.6 µM. For the same molecule, the TGI with RXF 393 renal was found to be 3.22 µM; with SK-MEL-2 melanoma, 4.08 µM; in the assay on UACC-62 melanoma it was 3.66 µM; with UO-31 renal, 3.29 µM.

On to `NC1=N/C(=C2/CCNC(=O)c3[nH]c(Br)cc32)C(=O)N1`, for which the TGI in the assay with CCRF-CEM leukemia is greater than 100 µM; in the assay on MALME-3M melanoma, greater than 100 µM; with NCI-H23 lung, greater than 100 µM; in the assay on OVCAR-4 ovarian, 46.4 µM and 40.5 µM; in the assay on OVCAR-8 ovarian it was greater than 100 µM; with RPMI-8226 leukemia it was greater than 100 µM. In addition, the TGI in the assay with RXF 393 renal is greater than 100 µM; in the assay on SK-MEL-2 melanoma, 8.72 µM and 26.3 µM; in the assay on UACC-62 melanoma it was greater than 100 µM; in the assay with UO-31 renal, > 73 µM and 29.8 µM. Besides, the GI50 in the assay on MALME-3M melanoma was 8.82 µM and 25.1 µM; in the assay with RPMI-8226 leukemia, > 79.9 µM and 15.6 µM; with SK-MEL-2 melanoma, 0.975 µM and 2.9 µM.

Consider `NS(=O)(=O)c1ccc(CCN=C=S)cc1`, for which the GI50 in the assay on CCRF-CEM leukemia was 2.65 µM; in the assay on MALME-3M melanoma, 2.22 µM; in the assay with NCI-H23 lung, 2.62 µM; in the assay on OVCAR-4 ovarian it was 1.9 µM; in the assay on OVCAR-8 ovarian it was 3.15 µM; in the assay on RPMI-8226 leukemia, 0.667 µM. In addition, the GI50 was 1.62 µM with RXF 393 renal, 2.3 µM in the assay on SK-MEL-2 melanoma, 1.81 µM in the assay on UACC-62 melanoma and 1.53 µM in the assay with UO-31 renal. Also, the TGI with CCRF-CEM leukemia came out at 7.45 µM; with MALME-3M melanoma, 5.35 µM; in the assay with NCI-H23 lung, 7.54 µM; in the assay on OVCAR-4 ovarian it was 4.15 µM; with OVCAR-8 ovarian, 10.3 µM; with RPMI-8226 leukemia, 5.2 µM. Also, the TGI with RXF 393 renal was 3.18 µM; with SK-MEL-2 melanoma, 5.84 µM; with UACC-62 melanoma, 3.59 µM; in the assay on UO-31 renal, 2.87 µM.

Regarding `COC(=O)CCC/C=C\C[C@H]1C=CC(=O)/C1=C/C[C@@H](O)C/C=C\CC(F)(F)F`, the GI50 in the assay with CCRF-CEM leukemia is 0.345 µM; in the assay with MALME-3M melanoma, 2.39 µM; in the assay on NCI-H23 lung, 1.9 µM; with OVCAR-4 ovarian, 5.09 µM; with OVCAR-8 ovarian, 3.3 µM; in the assay with RPMI-8226 leukemia, 1.26 µM. For the same molecule, the GI50 in the assay with RXF 393 renal was 1.98 µM; in the assay on SK-MEL-2 melanoma, 2.55 µM; in the assay with UACC-62 melanoma it was 1.2 µM; in the assay with UO-31 renal, 1.7 µM. For the same molecule, the TGI in the assay with CCRF-CEM leukemia was 5.27 µM; in the assay on MALME-3M melanoma, 7.03 µM; in the assay with NCI-H23 lung, 4.16 µM; with OVCAR-4 ovarian, 18.6 µM; with OVCAR-8 ovarian, 13.4 µM; in the assay on RPMI-8226 leukemia it was 7.9 µM. Further, the TGI in the assay on RXF 393 renal is 3.66 µM; with SK-MEL-2 melanoma, 7.53 µM; with UACC-62 melanoma, 3.64 µM; in the assay on UO-31 renal, 3.36 µM.

As to `O=C1CCC2(CC1)SCCCS2`, the TGI with CCRF-CEM leukemia, in the assay with MALME-3M melanoma, in the assay on NCI-H23 lung, with OVCAR-4 ovarian, in the assay with OVCAR-8 ovarian and with RPMI-8226 leukemia was greater than 100 µM throughout. Besides, the TGI in the assay with RXF 393 renal, in the assay on SK-MEL-2 melanoma, in the assay on UACC-62 melanoma and with UO-31 renal was greater than 100 µM throughout.

As to `CCCc1nc2c(C)cc(-c3nc4ccccc4n3C)cc2n1Cc1ccc(-c2ccccc2C(=O)O)cc1`, the GI50 in the assay on CCRF-CEM leukemia was 22.7 µM; with MALME-3M melanoma it was 45.9 µM; with NCI-H23 lung, 51.5 µM; in the assay on OVCAR-4 ovarian, 50.6 µM; in the assay with OVCAR-8 ovarian, 35.4 µM; in the assay on RPMI-8226 leukemia, 17.3 µM. Moreover, the GI50 with RXF 393 renal is 22.4 µM; in the assay on SK-MEL-2 melanoma, 36.6 µM; with UACC-62 melanoma, 22.4 µM; in the assay on UO-31 renal it was 19.3 µM. Besides, the TGI with CCRF-CEM leukemia was greater than 100 µM; in the assay on MALME-3M melanoma, greater than 100 µM; in the assay on NCI-H23 lung it was greater than 100 µM; in the assay on OVCAR-4 ovarian it was greater than 100 µM; in the assay with OVCAR-8 ovarian, greater than 100 µM; in the assay with RPMI-8226 leukemia, 95.9 µM. For the same molecule, the TGI with RXF 393 renal is 82.2 µM; with SK-MEL-2 melanoma it was 97.3 µM; in the assay with UACC-62 melanoma, greater than 100 µM; with UO-31 renal, 51.5 µM.
